Assay results taken from publication PMC6099615, “Anti-glycation, Carbonyl Trapping and Anti-inflammatory Activities of Chrysin Derivatives” (Molecules : A Journal of Synthetic Chemistry and Natural …, 2018).
Values after ≈ are worked out from the molar mass of the structure shown.

Legend:
[1] = tested on: AGE formation; test: Bovine serum albumin-methylglyoxal assay on AGE formation; type: biochemical; details: BSA-methylglyoxal, 37 °C, 48 h
Protocol: Bovine serum albumin (50 mg/mL) was incubated at 37 °C for 48 h with methylglyoxal (100 mM) in sodium phosphate buffer (0.1 M, pH 7.4) containing 0.2 g/L NaN3 in the presence of various concentrations of the compounds (including a control).
(§1) This test was used to evaluate the ability of samples to inhibit cross-linking of the GK peptide in the presence of D-ribose using the method described by Hwang et al. The GK peptide (26.7 mg/mL) was incubated with D-ribose (200 mg/mL) in sodium phosphate buffer (0.5 M, pH 7.4) containing 0.2 g/L NaN3 under sterile conditions at 37 °C for 72 h. […] All reagents and samples were sterilized by filtration through […] membrane filters. The fluorescence intensity was measured at an excitation wavelength of 355 nm and an emission wavelength of 460 nm with a Luminescence spectrometer LS50B (Perkin-Elmer Ltd., Buckinghamshire, England). AG was used as a positive control.

[2] = tested on: Amadori compound formation; test: Hemoglobin-δ-gluconolactone assay of Amadori compound formation; type: biochemical; design: inhibition rate of Amadori compound formation: dose or concentration left out as unconfirmed; details: for IC50: early stage of AGE formation; for inhibitory activity on Amadori compound formation, fold higher than positive control AG: relative to Aminoguanidine hydrochloride (IC50 = 109.74 μM)
[3] = Water solubility analysis; type: physicochemical; details: for water solubility, fold higher than CS: relative to CS; for solubility at 1 h: thermodynamic from solid, distilled water, 37 °C, sonication 1 h
Protocol: CS and derivatives were dissolved in distilled water and incubated at 37 °C with sonication for 1 h to maximize solubility. After sonication, undissolved samples were eliminated by centrifugation (7000× g, 37 °C, 5 min). The supernatants were diluted in methanol and filtered through a 0.45 μm disposable syringe filter (Advantec, Dublin, CA, USA) to analyze the concentration of the samples using HPLC analysis.

[4] = tested on: AGEs cross-linking; test: N-acetyl-glycyl-lysine-methyl ester D-ribose assay on AGE cross-linking; type: biochemical; details: GK peptide-D-ribose, 37 °C, 72 h
Protocol: as §1

[5] = tested on: NO production in LPS-induced RAW 264.7 cells; test: NO generation in LPS-induced RAW 264.7 cells (Griess); type: cell-based; details: 24 h
Protocol: The cytotoxicity of CS and derivatives on RAW 264.7 cells was examined using the MTS assay kit. Cells (1.6 × 10^4/well) were cultured in 96-well plates and treated with samples (10, 25, and 100 μM) for 12, 24, 48, and 72 h. After incubation, 20 μL/well of MTS solution was incubated for 90 min at 37 °C in a humidified 5% CO2 atmosphere. The optical density at 490 nm was measured three times using an EL-800 Universal microplate reader (Bio-Tek Instrument Inc., Winooski, VT, USA). Cell viability of the untreated group was set to 100%. RAW 264.7 cells were seeded into 12-well plates at 4 × 10^5-cells/well, and then incubated with LPS (1 μg/mL) and various concentrations of samples for 24 h. The concentration of nitric oxide (NO) in the medium was measured using the Griess reagent system, as described by the manufacturer. The production of NO was measured at 570 nm using an EL-800 Universal microplate reader (Bio-Tek Instrument Inc., Winooski, VT, USA), and was compared with a sodium nitrite standard calibration curve.

Question: Which IC50 [1] does the source give for `CC(=O)Oc1cc(OC(C)=O)c2c(=O)cc(-c3ccccc3)oc2c1` [5,7-Di-O-acetylchrysin, 5,7-di-O-acetylchrysin] here?
Answer: Its IC50 is 0.91 µM.

Question: And the “inhibition rate of Amadori compound formation” value ([2]; dose-dependent)?
Answer: Its value is 1.76–55.13%.

Question: What about the IC50 [2] of the same compound?
Answer: Its IC50 is 0.26 µM.

Question: What about the “inhibitory activity on Amadori compound formation, fold higher than positive control AG” value [2] of the same compound?
Answer: Its value is 422.07 fold.

Question: And the “inhibitory activity on Amadori compound formation, fold higher than CS” value ([2]; relative to CS)?
Answer: Its value is 66.96 fold.

Question: What about the “water solubility, fold higher than CS” value [3] of the same compound?
Answer: The value was 8.83 fold.

Question: And the solubility at 1 h [3]?
Answer: Its solubility at 1 h is 265 µM (≈ 89.7 µg/mL).

Question: What about the IC50 [4] of the same compound?
Answer: The IC50 was 22.3 µM.

Question: What about the “inhibition of NO” value [5] of the same compound?
Answer: The value was “concentration-dependent inhibition”.

Question: Which IC50 [1] does the source give for `COc1cc(OC)c2c(=O)cc(-c3ccccc3)oc2c1` [5,7-Di-O-methoxychrysin, 5,7-di-O-methoxychrysin] here?
Answer: The IC50 was 41.8 µM.

Question: And the IC50 [2]?
Answer: Its IC50 is 7.88 µM.

Question: And the “inhibitory activity on Amadori compound formation, fold higher than positive control AG” value [2]?
Answer: The value was 13.92 fold.

Question: What about the solubility at 1 h [3] of the same compound?
Answer: Its solubility at 1 h is 11 µM (≈ 3.11 µg/mL).

Question: What about the IC50 [4] of the same compound?
Answer: The IC50 was 39.9 µM.

Question: Which IC50 [1] does the source give for `CC(=O)Oc1cc(O)c2c(=O)cc(-c3ccccc3)oc2c1` [7-O-Acetylchrysin, 7-O-acetylchrysin] here?
Answer: Its IC50 is 21.6 µM.

Question: What about the IC50 [2] of the same compound?
Answer: Its IC50 is 23.5 µM.

Question: And the “inhibitory activity on Amadori compound formation, fold higher than positive control AG” value [2]?
Answer: Its value is 4.66 fold.

Question: What about the “water solubility, fold higher than CS” value [3] of the same compound?
Answer: The value was 2.87 fold.

Question: And the solubility at 1 h [3]?
Answer: The solubility at 1 h was 86 µM (≈ 25.5 µg/mL).

Question: What about the IC50 [4] of the same compound?
Answer: The IC50 was over 2000 µM.

Question: For `COc1cc(O)c2c(=O)cc(-c3ccccc3)oc2c1` [7-O-Methoxychrysin, 7-O-methoxychrysin], which IC50 [1] is on record?
Answer: Its IC50 is over 200 µM.

Question: And the IC50 [2]?
Answer: Its IC50 is over 31000 µM.

Question: And the “inhibitory activity on Amadori compound formation” value ([2]; up to a concentration of 10.0 mg/mL)?
Answer: The value was “no inhibitory activities”.

Question: What about the solubility at 1 h [3] of the same compound?
Answer: The solubility at 1 h was 10 µM (≈ 2.68 µg/mL).

Question: What about the IC50 [4] of the same compound?
Answer: Its IC50 is over 2000 µM.
